The values below come from ChEMBL document CHEMBL1127291, “Bioreductive markers for hypoxic cells: 2-nitroimidazoles with biotinylated 1-substituents” (J Med Chem, 1994).

In series [1] the test system is CaNT. The series is described as follows: Cytometric distribution of single cells from CaNT tumors treated in mice. Type of series: functional, cell-based. Particulars: Mus musculus.
Series [2] deals with CaNT. Briefly: Cytometric distribution of cell nuclei from CaNT tumors treated in mice with breathing air. Type of series: functional, cell-based. The conditions noted are these: Mus musculus.
The test system of series [3] is CaNT. The series is described as follows: Cytometric distribution of cell nuclei from CaNT tumors treated in mice with breathing carbogen. Particulars: Mus musculus. It counts as functional, cell-based.
Series [4] has as its system CaNT. Briefly: Cytometric distribution of single cells from CaNT tumors treated in mice with breathing air. Type of series: functional, cell-based. Particulars: Mus musculus.
Series [5] concerns CaNT. The series is described as follows: Cytometric distribution of cell nuclei from CaNT tumors treated in mice. Type of series: functional, cell-based. The conditions noted are these: Mus musculus.
The subject of series [6] is CaNT. The series is described as follows: Cytometric distribution of single cells from CaNT tumors treated in mice with breathing carbogen. Type of series: functional, cell-based. The conditions noted are these: Mus musculus.
Series [7] in a line: Half life evaluated in plasma in vitro at 20 degree Centigrade. It counts as ADME, cell-free.

In the case of `O=C1N[C@H]2[C@H](CS[C@H]2CCCCCn2ccnc2[N+](=O)[O-])N1`, the Distribution worked out at 1.2% with CaNT [1]; 11.7% with CaNT [2]; 0.69% with CaNT [3]; 16.5% with CaNT [4]; 0.85% in the series on CaNT [5]; 3.4% in the series on CaNT [6].
`O=C(CCCC[C@@H]1SC[C@@H]2NC(=O)N[C@@H]21)NCCNC(=O)Cn1ccnc1[N+](=O)[O-]` displayed a half-life in series [7] of 2 h.

A word on the half-life: it is the time needed for the level to fall by half in the phase considered. Higher therefore signals slow loss.
